# Entries after “also recorded” stand apart in the source; their conditions may differ. Where two headings read alike, the source gives them in different places.
# Columns and labels:
# AChE [1] = biological target: T1, AChE (Homo sapiens, UniProt P22303); assay: biochemical; conditions: IC50 Value AChE, Brain
# T1 construct: other: Brain
# Text: (§1) For example, the pharmacological activity of each compound may be expressed as the IC50, which is defined as the concentration (e.g., in nanomoles) required to inhibit 50% of the enzyme activity of ACHE or produce a 50% reduction in β-APP or Aβ. The AChE inhibition IC50 values may be determined by measuring the enzyme activity at each concentration and expressed as a percentage of the activity determined in the absence of each compound. This then is transformed into a logit format, where logit=In (% activity/[100−% activity]), and was plotted as a finction of the log concentration of the compound (Id.). IC50 values (i.e., logit=In (50/[100−50 =0) were determined only from correlation coefficients (r^2) of […] and when more than 50% inhibition was achieved from duplicate samples.
# BChE = biological target: T2, BChE (Homo sapiens, UniProt P06276); assay: BChE inhibition IC50 (RBC/plasma and brain); type: biochemical
# T2 construct: (−)-Phenserine (RBC/plasma); from tissue; host or cells: plasma (RBC/plasma rows); brain (Brain rows)
# T2 sequence (P06276 29-602, species assumed): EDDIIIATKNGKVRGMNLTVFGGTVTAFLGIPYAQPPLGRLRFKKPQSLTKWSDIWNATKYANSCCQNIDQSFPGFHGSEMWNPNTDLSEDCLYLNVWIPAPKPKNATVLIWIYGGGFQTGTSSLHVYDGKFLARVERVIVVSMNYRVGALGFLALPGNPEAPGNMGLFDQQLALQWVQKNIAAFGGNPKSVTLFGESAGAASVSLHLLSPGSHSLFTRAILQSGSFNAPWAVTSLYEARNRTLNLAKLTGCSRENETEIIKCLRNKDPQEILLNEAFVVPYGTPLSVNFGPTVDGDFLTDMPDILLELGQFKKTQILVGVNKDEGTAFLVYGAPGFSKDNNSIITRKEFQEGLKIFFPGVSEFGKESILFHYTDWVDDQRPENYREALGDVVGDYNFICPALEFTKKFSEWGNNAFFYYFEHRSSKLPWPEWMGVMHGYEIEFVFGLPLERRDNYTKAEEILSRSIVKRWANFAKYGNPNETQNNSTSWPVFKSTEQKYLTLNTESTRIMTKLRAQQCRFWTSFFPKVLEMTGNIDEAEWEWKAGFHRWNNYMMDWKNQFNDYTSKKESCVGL
# β-APP [2] = assay: β-APP levels in neuroblastoma cell culture (Western blot, mAb 22C11); type: cell-based, human; conditions: for β-APP levels, intracellular and extracellular: SK-N-SH cells, 5 or 50 μM, up to 16 hours, vs control, no cellular toxicity (LDH), FIG. 4/5; for intracellular β-APP level: donepezil treatment, FIG. 2
# Experimental: Acad. Sci. USA 98 (13):7605-7610. The methodology of Shaw et al. for carrying out these tests is summarized as follows:
# (§2) SK—N—SH neuroblastoma cells were cultured on 60 mm dishes at a concentration of 3×10^6 cells, and SH—SY-5Y neuroblastoma cells were plated in 100 mm dishes at a concentration of 3×10^5 cells. The cells were allowed to grow in complete media (10% FBS, 2 mM glutamine in DMEM) for 3 to 4 days until they reached 70% confluence.
# Lysate preparation: At each time point, the spent medium was collected and stored at −70 C for later analysis of secretory β-APP levels. Cell lysates were prepared as reported previously (Lahiri et al. (1997) Effects of Cholinesterase Inhibitors on the Secretion of Beta-Amyloid Precursor Protein in Cell Cultures, Ann. N.Y Acad. Sci. 826:416-421; and Lahiri et al. (1998) The Secretion of Amyloid Beta-Peptides is Inhibited in the Tacrine-Treated Human Neuroblastoma Cells, Mol. Brain Res. 62:131-140). Protein levels of the supernatant were analyzed by the Bradford protein assay (BioRad, Mellville, N.Y.).
# Western Blot: Fifteen μg of protein from each sample was loaded onto a 10% NuPAGE Bis-Tris gel in 1× NuPAGE MOPS SDS running buffer (NOVEX, San Diego, Calif.) and the proteins separated at 200 V for 45 minutes. The gels were then transferred onto nitrocellulose at 25 V for 1.5 hours. Non-specific binding was blocked, and each blot was probed for 2 hours with either 22C11 anti-β-APP N-terminal antibody (2.5 μg/mL, Boehringer Mannheim, Indianapolis, Ind.) or anti-activated ERK antibody (25 ng/mL, Promega, Madison, Wis.). Anti-mouse IgG- or anti-rabbit IgG, conjugated to horse radish peroxidase, were used as secondary antibodies. Equivalent loading of samples was determined by Ponceau S staining (Sigma, St. Louis, Mo.). Densimetric quantification of the chemiluminescence of blots was undertaken by using a […] and NIH-IMAGE (version 4.1).
# Aβ [3] = assay: Aβ levels in neuroblastoma cell culture (ELISA); type: cell-based, human; conditions: for secreted levels of Aβ: SK-N-SH cells, 5 or 50 μM, up to 16 hours, vs control, no cellular toxicity (LDH), FIG. 4/5
# Experimental: as §2
# Total Aβ Assay: Total Aβ peptide levels in SH—SY-5Y and SK—N—SH cultured samples were assayed by a sensitive ELISA assay (Suzuki et al., (1994) An Increased Percentage of Long Amyloid Beta Protein Secreted by Familial Amyloid Beta Protein Precursor (beta APP717) Mutants, Science 264:1336-1340). For total Aβ peptide measurements, a sandwich immunoassay with rabbit polyclonal antibody to residues 1-40 of Aβ or a monoclonal antibody to residues 17-25 of Aβ as a capture antibody for all species of Aβ peptide, Aβ1-40 and Aβ1-42, was used, and the values were expressed as the mean of six independent assays.
# β-APP [4] = assay: CSF levels of β-APP in naive and forebrain-lesioned rats; type: in vivo, rat; conditions: for CSF levels of β-APP: vs untreated controls, FIG. 6
# Experimental: Lesions were induced with […] N-methyl-D-aspartic acid (50 nMol) (64-68).
# AChE [5] = biological target: T3, AChE (Rattus norvegicus, UniProt P37136); assay: In vivo AChE inhibition in plasma after i.v. administration; set-up: species or system Fischer-344 rats; conditions: iv, 1 mg/kg i.v.
# T3 construct: Samples of plasma were removed to measure untreated levels of AChE activity; from tissue; host or cells: plasma of Fischer-344 rats
# T3 sequence (P37136 32-614): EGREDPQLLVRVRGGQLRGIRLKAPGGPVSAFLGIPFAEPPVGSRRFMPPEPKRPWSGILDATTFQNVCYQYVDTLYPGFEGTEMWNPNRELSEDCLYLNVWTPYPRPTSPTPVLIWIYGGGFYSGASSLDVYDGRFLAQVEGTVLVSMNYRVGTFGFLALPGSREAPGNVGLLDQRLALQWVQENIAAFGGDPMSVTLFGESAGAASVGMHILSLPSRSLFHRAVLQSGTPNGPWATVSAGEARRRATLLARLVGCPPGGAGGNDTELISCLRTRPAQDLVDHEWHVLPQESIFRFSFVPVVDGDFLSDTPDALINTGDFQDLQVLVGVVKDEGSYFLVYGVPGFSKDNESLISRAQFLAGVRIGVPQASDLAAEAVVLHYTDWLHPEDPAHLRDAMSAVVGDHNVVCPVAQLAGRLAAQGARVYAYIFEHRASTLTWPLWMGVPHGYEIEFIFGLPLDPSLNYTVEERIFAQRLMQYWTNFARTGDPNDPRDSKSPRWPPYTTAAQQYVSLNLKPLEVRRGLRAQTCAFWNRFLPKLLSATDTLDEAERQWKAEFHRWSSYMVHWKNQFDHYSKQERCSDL
# Experimental: In this experiment, three-month-old male Fischer-344 rats were anesthetized with halothane. PE 50 catheters, filled with heparinized isotonic saline, were tied into their right femoral artery and vein. Animals then were restrained with a plaster cast that enabled them to move their head and forequarters only and were allowed to recover from anesthesia in a temperature-controlled enclosure. Samples of plasma were removed to measure untreated levels of AChE activity. At 90 minutes after surgery, hexamethonium bromide (5 mg/kg) was administered intraperitoneally, followed by subcutaneous injection of atropine methyl bromide (4 mg/kg) 10 minutes later. […] Both were formulated in a manner consistent for intravenous bolus injection. Plasma samples were removed and immediately frozen at −70° C., just prior to intravenous administration of the inhibitors and at times between 2 minutes and 8 hours.
# [6] = i.p. administration to rodents, cholinergic over-stimulation symptoms
# Text: This is a classical central (i.e., brain) cholinergic over-stimulation (overdrive) effect.
# Aβ [7] = assay: Preclinical studies, Aβ levels in nerve cells; type: cell-based, rat; conditions: for reduction of Aβ levels in nerve cells: versus controls
# β-APP [8] = assay: Preclinical studies, β-APP levels; type: cell-based, rat; conditions: versus controls
# β-APP [9] = assay: β-APP levels in adult rats after three weeks of daily administration; type: in vivo, rat; conditions: daily for three weeks, metrifonate 80 mg/kg, tacrine 3 mg/kg, data not shown
# Experimental: The levels of β-APP were measured by 22C11 (epitope APP 66-81).
# [10] = biological target: T4, acetylcholinesterase (AChE) (Homo sapiens, UniProt P22303); assay: IC50 for AChE inhibition, phenserine enantiomers; type: biochemical
# T4 construct: host or cells: human erythrocytes
# T4 sequence (P22303 32-617 isoform P22303-2 limits assumed): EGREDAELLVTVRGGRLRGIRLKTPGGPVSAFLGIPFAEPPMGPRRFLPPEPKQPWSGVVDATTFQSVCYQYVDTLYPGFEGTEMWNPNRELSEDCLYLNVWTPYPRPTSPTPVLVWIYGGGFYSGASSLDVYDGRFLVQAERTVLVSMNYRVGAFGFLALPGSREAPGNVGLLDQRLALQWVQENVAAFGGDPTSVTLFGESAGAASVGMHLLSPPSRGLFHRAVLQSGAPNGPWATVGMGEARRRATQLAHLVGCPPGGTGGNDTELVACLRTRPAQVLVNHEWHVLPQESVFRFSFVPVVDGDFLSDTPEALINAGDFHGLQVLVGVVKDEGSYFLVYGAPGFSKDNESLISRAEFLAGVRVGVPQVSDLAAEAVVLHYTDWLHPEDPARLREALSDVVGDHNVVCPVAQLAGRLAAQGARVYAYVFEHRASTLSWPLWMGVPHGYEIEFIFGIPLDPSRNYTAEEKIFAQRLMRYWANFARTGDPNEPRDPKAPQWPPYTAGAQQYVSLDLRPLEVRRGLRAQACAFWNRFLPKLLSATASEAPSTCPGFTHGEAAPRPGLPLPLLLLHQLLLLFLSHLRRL
# Text: as §1
# β-APP [11] = assay: β-APP production on coadministration of (+)-phenserine with an AChEI (Example III); type: cell-based
# Text: The compounds may be tested by the procedure utilized in Example II.
# [12] = Randomized, double-blind, placebo-controlled 12-week study in mild to moderate Alzheimer's disease; type: in vivo, human; conditions: oral, 12 weeks
# [13] = biological target: T4, acetylcholinesterase (AChE); conditions: compared with the negative enantiomer; Pei, Greig et al. (1995); cited from earlier work
# [14] = extracellular β-APP levels, read-out: IC50 for β-APP secretion
# [15] = intracellular β-APP levels, read-out: IC50 for intracellular β-APP
# [16] = human neuroblastoma cells, 2 μM, 10 μM and 50 μM (text: 50 μM), FIG. 3
# T1 sequence (P22303 whole entry): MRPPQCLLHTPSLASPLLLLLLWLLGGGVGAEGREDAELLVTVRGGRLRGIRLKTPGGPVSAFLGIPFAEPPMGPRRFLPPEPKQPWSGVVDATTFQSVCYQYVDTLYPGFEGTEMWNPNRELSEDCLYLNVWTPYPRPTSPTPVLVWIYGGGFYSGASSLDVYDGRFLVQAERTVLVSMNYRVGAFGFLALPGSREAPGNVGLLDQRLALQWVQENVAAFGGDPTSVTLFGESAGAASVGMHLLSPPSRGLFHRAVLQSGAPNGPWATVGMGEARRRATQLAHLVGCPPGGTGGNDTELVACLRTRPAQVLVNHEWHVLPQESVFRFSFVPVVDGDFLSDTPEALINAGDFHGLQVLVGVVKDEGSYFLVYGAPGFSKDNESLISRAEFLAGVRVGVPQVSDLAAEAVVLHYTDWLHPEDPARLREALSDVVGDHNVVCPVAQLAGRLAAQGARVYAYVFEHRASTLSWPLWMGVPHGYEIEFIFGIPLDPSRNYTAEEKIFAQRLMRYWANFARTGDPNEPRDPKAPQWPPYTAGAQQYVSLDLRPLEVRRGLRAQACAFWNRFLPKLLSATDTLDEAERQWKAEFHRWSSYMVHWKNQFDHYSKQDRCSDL
structure (smiles),measurement,setting,value
"CN1CC[C@@]2(C)c3cc(OC(=O)Nc4ccccc4)ccc3N(C)C12 (single isomer, unassigned; (-)) [(−)-phenserine]",IC50,AChE [1],0.036 ± 0.003 µM
same,IC50,BChE; Brain,2.5 ± 1.1 µM
same,IC50,BChE; RBC/plasma,1.56 ± 0.27 µM
same,"β-APP levels, intracellular and extracellular",β-APP [2],significantly lowered; also recorded: reduces β-APP and Aβ levels in a concentration-dependent manner; also recorded: decreased the β-APP levels
same,IC50,β-APP [2]; [14],~0.67 µM
same,IC50,"β-APP [2]; intracellular β-APP levels, read-out: IC50 for inhibition of β-APP, intracellular",~1.1 µM
same,IC50,β-APP [2]; [15],~1.1 µM
same,secreted levels of Aβ,Aβ [3],significantly lowered; also recorded: reduces β-APP and Aβ levels in a concentration-dependent manner; also recorded: substantially reduced from that of the controls especially at 16 hours
same,"extracellular β-APP in the CSF, dose dependence of the decrease","β-APP [4]; adult rats, up to very high doses",reaches a plateau that is not further decreased even at very high doses
same,CSF levels of β-APP,"β-APP [4]; naive rats, 2.5 mg/kg, 2.5 mg/kg",lowered β-APP levels; also recorded: reduce β-APP levels
same,CSF levels of β-APP,β-APP [4]; rats with cholinergic forebrain (nucleus basalis of Meynert) lesions,lowered β-APP levels
same,inhibition at 1 mg/kg,"AChE [5]; at 5 minutes, read-out: maximum AChE inhibition",73.5%
same,inhibition at 1 mg/kg,"AChE [5]; at 8 hours, read-out: AChE inhibition",43%
same,duration of fine tremor,[6]; 5 mg/kg i.p.,about 1 hour
same,observed symptoms,[6]; 5 mg/kg i.p.,a fine tremor was observed
same,observed symptoms,[6]; 7.5 mg/kg i.p.,"Tremor, together with symptoms of peripheral over-stimulation (specifically, lacrimation and salivation)"
same,observed symptoms,[6]; 20 mg/kg i.p.,incapacitated by severe tremor and peripheral side effects
same,animals killed when moribund,"[6]; 20 mg/kg i.p., of 5 treated animals",2
same,reduction of Aβ levels in nerve cells,Aβ [7]; after 8 hours,14%
same,reduction of Aβ levels in nerve cells,Aβ [7]; after 16 hours,31%
same,levels of β-APP,β-APP [8],similarly reduced
Nc1c2c(nc3ccccc13)CCCC2 [Tacrine],secreted β-APP levels,β-APP [9],did not alter
"COc1cc2c(cc1OC)C(=O)C(CC1CCN(Cc3ccccc3)CC1)C2 (centres unmarked) [donepezil, reference compound]",intracellular β-APP level,β-APP [2],decreased intracellular levels
same,intracellular β-APP level,β-APP [2]; listed as Donepezil,reduces intracellular β-APP
COP(=O)(OC)C(O)C(Cl)(Cl)Cl (centres unmarked) [Metrifonate],secreted β-APP levels,β-APP [9],did not alter
"CN1CC[C@]2(C)c3cc(OC(=O)Nc4ccccc4)ccc3N(C)C12 (single isomer, unassigned; (+)) [(+)-phenserine]",IC50,[10],> 25 µM
same,"β-APP levels, intracellular and extracellular",β-APP [2],significantly lowered
same,"β-APP levels, intracellular and extracellular",β-APP [2]; listed as (+)-Phenserine,capable of reducing the β-APP and Aβ protein levels
same,IC50,β-APP [2]; [14],~0.67 µM
same,IC50,β-APP [2]; [15],~1.1 µM
same,secreted levels of Aβ,Aβ [3],significantly lowered
same,secreted levels of Aβ,Aβ [3]; listed as (+)-Phenserine,capable of reducing the β-APP and Aβ protein levels
same,observed symptoms,[6]; 20 mg/kg i.p.,entirely without symptoms
same,Aβ levels,Aβ [7]; combined with (−)-phenserine,further reduced
same,production of β-APP,β-APP [11]; coadministered with donepezil,reduce the production of β-APP
same,production of β-APP,β-APP [11]; coadministered with eptastigmine,reduce the production of β-APP
same,production of β-APP,β-APP [11]; coadministered with galantamine,reduce the production of β-APP
same,production of β-APP,β-APP [11]; coadministered with huperzine A,reduce the production of β-APP
same,production of β-APP,β-APP [11]; coadministered with rivastigmine,reduce the production of β-APP
same,"efficacy test level (NPI, CGIC, ADAS-cog, MMSE, CANTAB, ADCS-ADL) vs First Level",[12]; 50 mg bid with 5 mg bid (−)-phenserine,maintain a level at least as great as the First Level
same,"efficacy test level (NPI, CGIC, ADAS-cog, MMSE, CANTAB, ADCS-ADL) vs First Level",[12]; 50 mg bid with 6-12 mg per day rivastigmine,maintain a level at least as great as the First Level
same,activity as an inhibitor of human acetylcholinesterase,[13],far less active
"CCN(C)C(=O)Oc1cccc([C@H](C)N(C)C)c1 [rivastigmine, reference compound]",secreted β-APP,β-APP [2]; [16],elevated secretion of β-APP; also recorded: elevates the levels of secreted β-APP
same,Aβ peptide levels,Aβ [3]; [16],No statistically significant change; also recorded: without a statistically significant change

# — patent US20050182044A1, “Combinatorial therapy with an acetylcholinesterase inhibitor and (3aR)-1,3a,8-trimethyl-1,2,3,3a,8,8a-hexahydropyrrolo[2,3,-b]indol-5-yl phenylcarbamate” (priority 2004, published 2005)
